Results reported in patent US20030018079A1, “Treatment” (priority 2000, published 2003).

Experiment: Studies 004 and 005 together: timolol run-in and comparison of patient groups
Format: in vivo, patients
Settings: timolol run-in period before baseline
Procedure: A sub-population of 76 individuals in a population of total 854 patients enrolled into two different studies of German patients (004) and US patients (005) were identified at baseline as having some degree of abnormality to the optic nerve head together with a glaucomatous visual field defect and were treated with a fixed combination (FC) of latanoprost and timolol. Both studies were based on a randomized double-masked parallel group design. In both studies, a fixed combination (FC) of latanoprost and timolol was administered to a group of patients with optic nerve head damage and visual field loss (i.e. glaucomatous field defects) and to groups of patients without any such detected damages, but with an elevation of IOP. Patient demography and baseline characteristics in patients with and without optic nerve head damages and glaucomatous field defects are shown in Table 2.1.
The patients is the studies received one drop in the morning of a fixed combination of latanoprost (50 μg/ml) and timolol (5 mg/ml) during the study duration of 26 weeks. The exact composition of fixed combination is disclosed in Table 1. At baseline, IOP assessments were made at 08:00, 10:00, and 16:00. Measurements at the same time-points were subsequently made at scheduled clinic visits at Week 2, Week 13, and Week 26. Additionally, an 08:00 measurement was also obtained at Week 6. […]

Question: For `CC(C)(C)NC[C@H](O)COc1nsnc1N1CCOCC1` [timolol], which “decrease in IOP” value is on record?
Answer: approximately 5 mm Hg
